How the values were obtained:
mGAT1 [1] = biological target: T1, mGAT1 (Mus musculus, UniProt P31648); experiment: MS Binding Assay with NO711 as native MS marker; details: MS Binding Assay, NO711 marker; pKi±SEM; read-out: pK i mGAT1 (converted)
T1 construct: expressed in transfected cells; host or cells: HEK293
Method in brief: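 Competitive MS binding using membranes from HEK293 cells stably expressing mGAT1, with 10 nM unlabeled NO711 as marker and compounds at 7 concentrations. Nonspecific binding defined with 100 mM GABA. Bound NO711 eluted after filtration and quantified by LC-ESI-MS/MS against [2H10]NO711; Ki derived.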

mGAT1 [2] = biological target: T1, mGAT1; experiment: [^3H]GABA uptake assay, HEK293 cells expressing mGAT1; format: cell-based; details: [^3H]GABA uptake; pIC50±SEM
Method in brief: (§1)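 HEK293 cells expressing mouse GATs preincubated 25 min at 37 °C with compound in Krebs buffer pH 7.2, then [3H]GABA added: 8 nM plus 32 nM unlabeled for 4 min (mGAT1/3/4), 20 nM plus 20 nM for 10 min (mGAT2). Filtration, scintillation counting; nonspecific uptake with 10 mM (mGAT1/3/4) or 100 mM GABA (mGAT2); pIC50.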

mGAT2 = biological target: T2, mGAT2 (Mus musculus, UniProt P31651); experiment: [^3H]GABA uptake assay, HEK293 cells expressing mGAT2; format: cell-based; details: HEK293; in presence of 100 μM compound
T2 construct: expressed in transfected cells; host or cells: HEK293
T2 sequence (P31651 1-614): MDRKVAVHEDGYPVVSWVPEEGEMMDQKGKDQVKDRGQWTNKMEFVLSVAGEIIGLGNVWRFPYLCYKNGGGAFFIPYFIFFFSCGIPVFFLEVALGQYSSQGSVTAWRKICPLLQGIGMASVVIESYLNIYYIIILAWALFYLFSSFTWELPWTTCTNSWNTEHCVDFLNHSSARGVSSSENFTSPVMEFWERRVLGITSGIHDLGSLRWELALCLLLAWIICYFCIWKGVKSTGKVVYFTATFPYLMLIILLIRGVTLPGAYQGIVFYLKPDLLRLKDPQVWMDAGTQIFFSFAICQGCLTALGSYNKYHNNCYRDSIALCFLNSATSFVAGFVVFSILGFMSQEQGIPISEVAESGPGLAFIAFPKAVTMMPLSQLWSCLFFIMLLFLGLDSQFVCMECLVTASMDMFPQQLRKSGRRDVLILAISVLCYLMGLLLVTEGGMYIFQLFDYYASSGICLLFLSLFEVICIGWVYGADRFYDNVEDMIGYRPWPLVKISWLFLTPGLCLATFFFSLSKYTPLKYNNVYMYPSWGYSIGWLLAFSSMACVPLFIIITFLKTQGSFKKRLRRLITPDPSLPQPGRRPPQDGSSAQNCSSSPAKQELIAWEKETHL
Method in brief: as §1

mGAT3 = biological target: T3, mGAT3 (Mus musculus, UniProt P31649); experiment: [^3H]GABA uptake assay, HEK293 cells expressing mGAT3; format: cell-based; details: [^3H]GABA uptake; pIC50±SEM
T3 construct: expressed in transfected cells; host or cells: HEK293
T3 sequence (P31649 1-602): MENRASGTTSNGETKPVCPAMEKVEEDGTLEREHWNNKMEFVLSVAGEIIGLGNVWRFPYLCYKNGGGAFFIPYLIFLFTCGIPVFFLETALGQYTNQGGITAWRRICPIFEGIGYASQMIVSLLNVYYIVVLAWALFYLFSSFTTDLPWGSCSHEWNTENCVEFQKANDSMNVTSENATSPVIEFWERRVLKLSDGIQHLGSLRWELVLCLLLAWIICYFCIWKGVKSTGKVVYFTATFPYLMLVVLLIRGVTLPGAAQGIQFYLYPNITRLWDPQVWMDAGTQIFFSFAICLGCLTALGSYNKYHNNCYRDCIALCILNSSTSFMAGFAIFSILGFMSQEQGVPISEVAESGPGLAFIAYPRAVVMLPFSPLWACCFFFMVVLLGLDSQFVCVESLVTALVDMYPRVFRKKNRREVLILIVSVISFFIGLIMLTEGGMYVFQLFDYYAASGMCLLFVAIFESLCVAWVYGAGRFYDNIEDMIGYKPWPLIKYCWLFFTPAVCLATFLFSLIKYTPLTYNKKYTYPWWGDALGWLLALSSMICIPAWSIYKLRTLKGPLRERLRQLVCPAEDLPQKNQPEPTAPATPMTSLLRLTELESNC
Method in brief: as §1

- Ki (mGAT1 [1]): 38.9 µM
- IC50 (mGAT1 [2]): 67.6 µM
- remaining activity at 100 µM (mGAT2): 66.3%
- IC50 (mGAT3): 10.5 µM
Compound: COc1ccc(C(OCCN2CCCC(C(=O)O)C2)(c2ccc(C=O)cc2)c2ccc(OC)cc2)cc1 (racemic) [5 a, rac‐ 1‐{2‐[(4‐Formylphenyl)bis(4‐methoxyphenyl)methoxy]ethyl}piper‐idine‐3‐carboxylic acid]

From article PMC7317212 (Chemmedchem, 2020)
